Drawing on patent US12679843B2, “Pyrrolopyrimidine amines as complement inhibitors” (BioCryst Pharmaceuticals, Inc., priority 2020, dated 2026), this text covers IC50 for 19 compounds.

A value given as a limit tells only on which side of the number the result lay.

Factor D, sequence (P00746 26-253): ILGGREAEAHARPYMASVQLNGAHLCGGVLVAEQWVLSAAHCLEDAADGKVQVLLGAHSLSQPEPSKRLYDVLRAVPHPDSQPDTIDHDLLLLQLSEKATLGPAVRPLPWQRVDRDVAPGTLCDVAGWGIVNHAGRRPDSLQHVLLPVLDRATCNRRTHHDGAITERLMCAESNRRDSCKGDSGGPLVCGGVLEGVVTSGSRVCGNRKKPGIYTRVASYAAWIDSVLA

This experiment concerns the target Factor D (Homo sapiens, UniProt P00746). The experiment is described as follows: Factor D esterolytic assay (Z-Lys-SBzl thioester substrate, DTNB, 405 nm). The class given is biochemical. Conditions: substrate Z-Lys-SBzl 1.29 mM, 100 mM HEPES, 500 mM NaCl, pH 7.5, 10% DMSO, tested a minimum of three times. In outline:
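Run in pH 7.5 HEPES (100 mM) with 500 mM NaCl and 10% DMSO, with compound preincubated at room temperature or not before adding 1.29 mM Z-Lys-SBzl. Free thiol released by Factor D reacts with DTNB, and rate is followed at 405 nm minus 690 nm over 600 s. IC50 derives from rate-based inhibition, minimum three replicates.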
Broadly, the IC50 is the concentration at which inhibition is half-maximal. Take `NCc1cn(CC(=O)N2C[C@H](F)C[C@H]2C(=O)NCc2cccc(Cl)c2F)c2ncnc(N)c12` [Compound 141a, (2S,4R)-1-(2-(4-amino-5-(aminomethyl)-7H-pyrrolo[2,3-d]pyrimidin-7-yl)acetyl)-N-(3-chloro-2-fluorobenzyl)-4-fluoropyrrolidine-2-carboxamide]: the IC50 is more than 1 µM. Under `Nc1ncnc2c1c1nc(Br)ccc1n2CC(=O)N1[C@@H]2C[C@@H]2C[C@H]1C(=O)Nc1cccc(Br)n1` [Compound 290g, (1R,3S,5R)-2-(2-(4-amino-6-bromo-9H-pyrido[2′,3′:4,5]pyrrolo[2,3-d]pyrimidin-9-yl)acetyl)-N-(6-bromopyridin-2-yl)-2-azabicyclo[3.1.0]hexane-3-carboxamide] stands less than 0.1 µM; under `CSc1cn(CC(=O)N2[C@@H]3C[C@@H]3C[C@H]2C(=O)Nc2cccc(Br)n2)c2ncnc(N)c12` [Compound 154e, (1R,3S,5R)-2-(2-(4-amino-5-(methylthio)-7H-pyrrolo[2,3-d]pyrimidin-7-yl)acetyl)-N-(6-bromopyridin-2-yl)-2-azabicyclo[3.1.0]hexane-3-carboxamide], 0.1 to 1 µM. Regarding `Nc1ncnc2c1c(I)cn2CC(=O)N1C[C@H](F)C[C@H]1C(=O)NCc1cccc(Cl)c1F` [Compound 148d, (2S,4R)-1-(2-(4-amino-5-iodo-7H-pyrrolo[2,3-d]pyrimidin-7-yl)acetyl)-N-(3-chloro-2-fluorobenzyl)-4-fluoropyrrolidine-2-carboxamide], the IC50 was 0.1 to 1 µM. Regarding `Nc1ncnc2c1c1cc(C(F)(F)F)ccc1n2CC(=O)N1[C@@H]2C[C@@H]2C[C@H]1C(=O)Nc1ccccn1` [Compound 272c, (1R,3S,5R)-2-(2-(4-amino-6-(trifluoromethyl)-9H-pyrimido[4,5-b]indol-9-yl)acetyl)-N-(pyridin-2-yl)-2-azabicyclo[3.1.0]hexane-3-carboxamide], the IC50 fell in the range of 0.1 to 1 µM.

On to `C[C@@]12C[C@@H](C(=O)Nc3cccc(Br)n3)N(C(=O)Cn3c4ccc(Br)cc4c4c(N)ncnc43)[C@@H]1C2` [Compound 160a, (1R,3S,5R)-2-(2-(4-amino-6-bromo-9H-pyrimido[4,5-b]indol-9-yl)acetyl)-N-(6-bromopyridin-2-yl)-5-methyl-2-azabicyclo[3.1.0]hexane-3-carboxamide], for which the IC50 was less than 0.1 µM. Under `Nc1ncnc2c1c1cc(C(F)(F)F)ccc1n2CC(=O)N1C[C@H](N)C[C@H]1C(=O)Nc1cccc(Br)n1` [Compound 201e, (2S,4R)-4-amino-1-(2-(4-amino-6-(trifluoromethyl)-9H-pyrimido[4,5-b]indol-9-yl)acetyl)-N-(6-bromopyridin-2-yl)pyrrolidine-2-carboxamide] stands 0.1 to 1 µM; under `O=C(O)c1cnc2c(ccn2CC(=O)N2[C@@H]3C[C@@H]3C[C@H]2C(=O)Nc2cccc(Br)n2)c1` [Compound 128a, 1-(2-((1R,3S,5R)-3-((6-bromopyridin-2-yl)carbamoyl)-2-azabicyclo[3.1.0]hexan-2-yl)-2-oxoethyl)-1H-pyrrolo[2,3-b]pyridine-5-carboxylic acid], more than 1 µM.

On to `COc1cc2c(cc1Br)c1c(N)ncnc1n2CC(=O)N1[C@@H]2C[C@@H]2C[C@H]1C(=O)Nc1cccc(Br)n1` [Compound 374g, (1R,3S,5R)-2-(2-(4-amino-6-bromo-7-methoxy-9H-pyrimido[4,5-b]indol-9-yl)acetyl)-N-(6-bromopyridin-2-yl)-2-azabicyclo[3.1.0]hexane-3-carboxamide], for which the IC50 was less than 0.1 µM. Regarding `Nc1ncnc2c1ncn2CC(=O)N1C[C@H](F)C[C@H]1C(=O)Nc1cccc(Br)n1` [Compound 93a, (2S,4R)-1-(2-(6-amino-9H-purin-9-yl)acetyl)-N-(6-bromopyridin-2-yl)-4-fluoropyrrolidine-2-carboxamide], the IC50 was in the range of 0.1 to 1 µM. Under `Nc1ncnc2c1ncn2CC(=O)N1CCC[C@H]1C(=O)NCc1cccc(Cl)c1F` [Compound 119a, (S)-1-(2-(6-amino-9H-purin-9-yl)acetyl)-N-(3-chloro-2-fluorobenzyl)pyrrolidine-2-carboxamide] stands 0.1 to 1 µM; under `COc1cccc(-c2cc(C)c3c(c2)c2c(N)ncnc2n3CC(=O)N2[C@@H]3C[C@@H]3C[C@H]2C(=O)Nc2cccc(Br)n2)c1` [Compound 341c, (1R,3S,5R)-2-(2-(4-amino-6-(3-methoxyphenyl)-8-methyl-9H-pyrimido[4,5-b]indol-9-yl)acetyl)-N-(6-bromopyridin-2-yl)-2-azabicyclo[3.1.0]hexane-3-carboxamide], less than 0.1 µM; under `Nc1ncnc2c1cc1n2C(C(=O)N2[C@@H](C(=O)Nc3cccc(Br)n3)C[C@@H]3C[C@@H]32)Oc2ccccc2-1` (single isomer, unassigned) [Compound 293b], less than 0.1 µM. Under `Nc1ncnc2c1c1cc(-c3cccnc3)ccc1n2CC(=O)N1[C@@H]2C[C@@H]2C[C@H]1C(=O)Nc1cccc(Br)n1` [Compound 273c, (1R,3S,5R)-2-(2-(4-amino-6-(pyridin-3-yl)-9H-pyrimido[4,5-b]indol-9-yl)acetyl)-N-(6-bromopyridin-2-yl)-2-azabicyclo[3.1.0]hexane-3-carboxamide] stands less than 0.1 µM; under `Nc1ncnc2c1c1cc(-c3ccc(F)cc3)ccc1n2CC(=O)N1[C@@H]2C[C@@H]2C[C@H]1C(=O)Nc1cccc(Br)n1` [Compound 335c, (1R,3S,5R)-2-(2-(4-amino-6-(4-fluorophenyl)-9H-pyrimido[4,5-b]indol-9-yl)acetyl)-N-(6-bromopyridin-2-yl)-2-azabicyclo[3.1.0]hexane-3-carboxamide], less than 0.1 µM; under `Cc1cc(C(F)(F)F)cc2c3c(N)ncnc3n(CC(=O)N3[C@@H]4C[C@@H]4C[C@H]3C(=O)Nc3cccc(OC(F)F)n3)c12` [Compound 345c, (1R,3S,5R)-2-(2-(4-amino-8-methyl-6-(trifluoromethyl)-9H-pyrimido[4,5-b]indol-9-yl)acetyl)-N-(6-(difluoromethoxy)pyridin-2-yl)-2-azabicyclo[3.1.0]hexane-3-carboxamide], less than 0.1 µM. Take `Cc1cc(F)c(Br)nc1NC(=O)[C@@H]1C[C@@H](F)CN1C(=O)Cn1c2ncnc(N)c2c2cc(C(F)(F)F)cc(C)c21` [Compound 366c, (2S,4R)-1-(2-(4-amino-8-methyl-6-(trifluoromethyl)-9H-pyrimido[4,5-b]indol-9-yl)acetyl)-N-(6-bromo-5-fluoro-3-methylpyridin-2-yl)-4-fluoropyrrolidine-2-carboxamide]: the IC50 was less than 0.1 µM. Under `C[C@@]12C[C@@H](C(=O)Nc3cccc(Br)n3)N(C(=O)Cn3c4ccc(-c5ccccc5)cc4c4c(N)ncnc43)[C@@H]1C2` [Compound 270a, (1R,3S,5R)-2-(2-(4-amino-6-phenyl-9H-pyrimido[4,5-b]indol-9-yl)acetyl)-N-(6-bromopyridin-2-yl)-5-methyl-2-azabicyclo[3.1.0]hexane-3-carboxamide] stands less than 0.1 µM; under `NC[C@H]1C[C@@H](C(=O)Nc2cccc(Br)n2)N(C(=O)Cn2c3ccc(C(F)(F)F)cc3c3c(N)ncnc32)C1` [Compound 212e, (2S,4R)-1-(2-(4-amino-6-(trifluoromethyl)-9H-pyrimido[4,5-b]indol-9-yl)acetyl)-4-(aminomethyl)-N-(6-bromopyridin-2-yl)pyrrolidine-2-carboxamide], 0.1 to 1 µM.
